Values of other authors, collected in patent US20030190354A1 (priority 2002, published 2003).
Structures can show the parent of a compound that is named as a salt.

Details: 0.2 M sodium chloride

## COc1ccc(C(CN(C)C)C2(O)CCCCC2)cc1 (racemic) [Venlafaxine hydrochloride, (R/S)-1-[2-(dimethylamino)-1-(4-methoxyphenyl)ethyl] cyclohexanol hydrochloride]
  octanol: water partition coefficient: 0.43
